# Reference: patent US10857110B2, “Antibacterial compounds” (CONSEJO NACIONAL DE INVESTIGACIONES CIENTÍFICAS Y TÉCNICAS …, priority 2016, dated 2020)
# Experiments:
# B. contaminans (HNBC001) = experiment: MIC/MBC antibiotic sensitivity (CLSI); format: cell-based; conditions: Ceftazimide, CLSI criteria
# Protocol: (§1) The new compounds of the invention were synthesized following the general method of preparation (Tetrahedron, 2001, 57, 1671-1675), from the reaction between an intermediary compound of the acyl thiourea and HgCl2 in presence of trimethylamine. The products were adequately characterized regarding its chemistry. The antibacterial activity of the new compounds was assayed against two Gram-positive reference strains: Staphylococcus aureus (ATCC6538) and Bacillus cereus (ATCC10876), a fermenting Gram-negative strain: Escherichia coli (ATCC25922), and 26 non-fermenting Gram-negative isolates, including 3 reference strains: Pseudomonas aeruginosa (PAO1), Bordetella bronchiseptica (9.73H+), and Inquilinus limosus (DSM16000), and 23 isolates recovered from patients suffering from cystic fibrosis, including one Achromobacter xylosoxidans isolate, and 22 isolates belonging to the Burkholderia cepacia complex. The later were selected because they presented resistance to a high number of antimicrobial compounds, among a panel of 125 clinical isolates previously analyzed for its resistance against 17 antimicrobial compounds (1,2). The antibiotic sensitivity studies were performed by applying two quantitative methods which allow to determine the minimum inhibitory concentration (MIC) and the minimum bactericidal concentration (MBC).
# (§2) The compounds obtained in Examples 1 and 2 were assayed against 23 isolates recovered from the sputum of patients suffering from cystic fibrosis being treated at the Sor Maria Ludovica Children Hospital (La Plata, Buenos Aires, Argentina). Nineteen of these isolates were selected for being highly resistant to most of the antimicrobial agents of clinical use from a panel of 125 isolates previously characterized in Martina et al. (1). Reference strains were also included: Gram (+) bacteria: B. cereus and S. aureus, fermenting Gram (−) bacteria: E. coli, and non-fermenting Gram (−) bacteria: Inquilinus limosus (DSM16000), B. bronchiseptica, and Pseudomonas aeruginosa (PAO1). The antibiotic sensitivity studies were performed applying two quantitative methods which allow to determine the minimum inhibitory concentration (MIC) and the minimum bactericidal concentration (MBC) according to the criteria established by the Clinical and Laboratory Standards Institute (CLSI) (4). For comparative purposes, three antibiotics commonly used in the treatment of pulmonary infections in cystic fibrosis patients were included in the study: tobramycin, ceftazidime and meropenem.
# [1] = tested on: Bacillus cereus (ATCC10876); experiment: MIC/MBC antibiotic sensitivity (CLSI); format: cell-based
# Protocol: as §1, §2
# [2] = tested on: Bordetella bronchiseptica (9.73H+); experiment: MIC/MBC antibiotic sensitivity (CLSI); format: cell-based; conditions: B. bronchiseptica (9.73H+)
# Protocol: as §1, §2
# [3] = tested on: Burkholderia cenocepacia (CBC 023); experiment: MIC/MBC antibiotic sensitivity (CLSI); format: cell-based; conditions: Ceftazimide, CLSI criteria; B. cenocepacia (CBC 023)
# Protocol: as §1, §2
# [4] = tested on: Burkholderia cenocepacia (CBC 024); experiment: MIC/MBC antibiotic sensitivity (CLSI); format: cell-based
# Protocol: as §1, §2
# [5] = tested on: Burkholderia cenocepacia (CBC 029); experiment: MIC/MBC antibiotic sensitivity (CLSI); format: cell-based
# Protocol: as §1, §2
# [6] = tested on: Burkholderia cenocepacia (CBC 031); experiment: MIC/MBC antibiotic sensitivity (CLSI); format: cell-based
# Protocol: as §1, §2
# [7] = tested on: Burkholderia cenocepacia (CBC 032); experiment: MIC/MBC antibiotic sensitivity (CLSI); format: cell-based
# Protocol: as §1, §2
# [8] = tested on: Burkholderia cenocepacia (CBC 033); experiment: MIC/MBC antibiotic sensitivity (CLSI); format: cell-based
# Protocol: as §1, §2
# [9] = tested on: Burkholderia cenocepacia (CBC 035); experiment: MIC/MBC antibiotic sensitivity (CLSI); format: cell-based
# Protocol: as §1, §2
# [10] = tested on: Burkholderia cenocepacia (CBC 036); experiment: MIC/MBC antibiotic sensitivity (CLSI); format: cell-based
# Protocol: as §1, §2
# [11] = tested on: Burkholderia cenocepacia (HE001); experiment: MIC/MBC antibiotic sensitivity (CLSI); format: cell-based; conditions: Ceftazimide, CLSI criteria; B. cenocepacia (HE001)
# Protocol: as §1, §2
# [12] = tested on: Burkholderia cepacia (CBC 010); experiment: MIC/MBC antibiotic sensitivity (CLSI); format: cell-based; conditions: Ceftazimide, CLSI criteria; B. cepacia (CBC 010)
# Protocol: as §1, §2
# [13] = tested on: Burkholderia cepacia (CBC 011); experiment: MIC/MBC antibiotic sensitivity (CLSI); format: cell-based; conditions: Ceftazimide, CLSI criteria; B. cepacia (CBC 011)
# Protocol: as §1, §2
# [14] = tested on: Burkholderia multivorans (CBC 015); experiment: MIC/MBC antibiotic sensitivity (CLSI); format: cell-based
# Protocol: as §1, §2
# [15] = tested on: Burkholderia multivorans (CBC 016); experiment: MIC/MBC antibiotic sensitivity (CLSI); format: cell-based
# Protocol: as §1, §2
# [16] = tested on: Burkholderia multivorans (CBC 018); experiment: MIC/MBC antibiotic sensitivity (CLSI); format: cell-based
# Protocol: as §1, §2
# [17] = tested on: Burkholderia multivorans (CBC 019); experiment: MIC/MBC antibiotic sensitivity (CLSI); format: cell-based; conditions: Ceftazimide, CLSI criteria; B. multivorans (CBC 019)
# Protocol: as §1, §2
# [18] = tested on: Burkholderia multivorans (CBC 020); experiment: MIC/MBC antibiotic sensitivity (CLSI); format: cell-based; conditions: Ceftazimide, CLSI criteria; B. multivorans (CBC 020)
# Protocol: as §1, §2
# [19] = tested on: Burkholderia multivorans (CBC 021); experiment: MIC/MBC antibiotic sensitivity (CLSI); format: cell-based; conditions: Ceftazimide, CLSI criteria; B. multivorans (CBC 021)
# Protocol: as §1, §2
# [20] = tested on: Burkholderia multivorans (CBC 022); experiment: MIC/MBC antibiotic sensitivity (CLSI); format: cell-based; conditions: Ceftazimide, CLSI criteria; B. multivorans (CBC 022)
# Protocol: as §1, §2
# [21] = tested on: Burkholderia seminalis (CBC 040); experiment: MIC/MBC antibiotic sensitivity (CLSI); format: cell-based; conditions: Ceftazimide, CLSI criteria; B. seminalis (CBC 040)
# Protocol: as §1, §2
# [22] = tested on: Burkholderia seminalis (CBC 042); experiment: MIC/MBC antibiotic sensitivity (CLSI); format: cell-based; conditions: Ceftazimide, CLSI criteria; B. seminalis (CBC 042)
# Protocol: as §1, §2
# [23] = tested on: Escherichia coli (ATCC25922); experiment: MIC/MBC antibiotic sensitivity (CLSI); format: cell-based; conditions: E. coli (ATCC25922)
# Protocol: as §1, §2
# [24] = tested on: Inquilinus limosus (DSM16000); experiment: MIC/MBC antibiotic sensitivity (CLSI); format: cell-based; conditions: Ceftazimide, CLSI criteria
# Protocol: as §1, §2
# [25] = tested on: Pseudomonas aeruginosa (PAO1); experiment: MIC/MBC antibiotic sensitivity (CLSI); format: cell-based; conditions: P. aeruginosa (PAO1)
# Protocol: as §1, §2
# [26] = tested on: Staphylococcus aureus (ATCC6538); experiment: MIC/MBC antibiotic sensitivity (CLSI); format: cell-based; conditions: S. aureus (ATCC6538)
# Protocol: as §1, §2
# B. cenacepacia (FQC2524) = experiment: MIC/MBC antibiotic sensitivity (CLSI); format: cell-based, B. cenocepacia; conditions: Ceftazimide, CLSI criteria
# Protocol: as §1, §2
# [27] = tested on: Achromobacter xylosaxidans (HNA001); experiment: MIC/MBC antibiotic sensitivity (CLSI); format: cell-based, Achromobacter xylosoxidans; conditions: Ceftazimide, CLSI criteria; A. xylosaxidans (HNA001)
# Protocol: as §1, §2
# [28] = tested on: Burkholderia seminalis (CBC 040); conditions: reference (1); cited from earlier work
compound,measurement,setting,value
"CC(C)(O/N=C(\C(=O)N[C@@H]1C(=O)N2C(C(=O)[O-])=C(C[n+]3ccccc3)CS[C@H]12)c1csc(N)n1)C(=O)O [Ceftazimide, ceftazidime]",MIC (R/I/S category),B. contaminans (HNBC001),S (<8 μg/ml S)
same,MBC,[1],0.97 µg/mL
same,MIC,[1],0.97 µg/mL
same,MBC,[2],62.5 µg/mL
same,MIC,[2],7.81 µg/mL
same,MIC (R/I/S category),[3],R (>32 μg/ml R)
same,MBC,[4]; Burkholderia cenocepacia (CBC 024),7.81 µg/mL
same,MIC (R/I/S category),"[4]; Ceftazimide, CLSI criteria, B. cenocepacia (CBC 024)",S (<8 μg/ml S)
same,MBC,[5]; Burkholderia cenocepacia (CBC 029),15.62 µg/mL
same,MIC (R/I/S category),"[5]; Ceftazimide, CLSI criteria, B. cenocepacia (CBC 029)",S (<8 μg/ml S)
same,MBC,[6]; Burkholderia cenocepacia (CBC 031),7.81 µg/mL
same,MIC (R/I/S category),"[6]; Ceftazimide, CLSI criteria, B. cenocepacia (CBC 031)",S (<8 μg/ml S)
same,MBC,[7]; Burkholderia cenocepacia (CBC 032),7.81 µg/mL
same,MIC (R/I/S category),"[7]; Ceftazimide, CLSI criteria, B. cenocepacia (CBC 032)",S (<8 μg/ml S)
same,MBC,[8]; Burkholderia cenocepacia (CBC 033),31.25 µg/mL
same,MIC (R/I/S category),"[8]; Ceftazimide, CLSI criteria, B. cenocepacia (CBC 033)",S (<8 μg/ml S)
same,MBC,[9]; Burkholderia cenocepacia (CBC 035),15.62 µg/mL
same,MIC (R/I/S category),"[9]; Ceftazimide, CLSI criteria, B. cenocepacia (CBC 035)",S (<8 μg/ml S)
same,MBC,[10]; Burkholderia cenocepacia (CBC 036),15.62 µg/mL
same,MIC (R/I/S category),"[10]; Ceftazimide, CLSI criteria, B. cenocepacia (CBC 036)",S (<8 μg/ml S)
same,MIC (R/I/S category),[11],R (>32 μg/ml R)
same,MIC (R/I/S category),[12],R (>32 μg/ml R)
same,MIC (R/I/S category),[13],R (>32 μg/ml R)
same,MBC,[14]; Burkholderia multivorans (CBC 015),7.81 µg/mL
same,MIC (R/I/S category),"[14]; Ceftazimide, CLSI criteria, B. multivorans (CBC 015)",S (<8 μg/ml S)
same,MBC,[15]; Burkholderia multivorans (CBC 016),3.9 µg/mL
same,MIC (R/I/S category),"[15]; Ceftazimide, CLSI criteria, B. multivorans (CBC 016)",S (<8 μg/ml S)
same,MBC,[16]; Burkholderia multivorans (CBC 018),7.81 µg/mL
same,MIC (R/I/S category),"[16]; Ceftazimide, CLSI criteria, B. multivorans (CBC 018)",S (<8 μg/ml S)
same,MIC (R/I/S category),[17],R (>32 μg/ml R)
same,MIC (R/I/S category),[18],R (>32 μg/ml R)
same,MIC (R/I/S category),[19],R (>32 μg/ml R)
same,MIC (R/I/S category),[20],R (>32 μg/ml R)
same,MIC (R/I/S category),[21],R (>32 μg/ml R)
same,MIC (R/I/S category),[22],R (>32 μg/ml R)
same,MBC,[23],0.97 µg/mL
same,MIC,[23],0.97 µg/mL
same,MIC (R/I/S category),[24],R (>32 μg/ml R)
same,MBC,[25],1.95 µg/mL
same,MIC,[25],1.95 µg/mL
same,MBC,[26],7.81 µg/mL
same,MIC,[26],7.81 µg/mL
same,MIC (R/I/S category),B. cenacepacia (FQC2524),S (<8 μg/ml S)
same,MIC (R/I/S category),[27],S (<8 μg/ml S)
same,resistance of the strain to commercial antibiotics,[28],resistant
NCC[C@H](O)C(=O)N[C@@H]1C[C@H](N)[C@@H](O[C@H]2O[C@H](CN)[C@@H](O)[C@H](O)[C@H]2O)[C@H](O)[C@H]1O[C@H]1O[C@H](CO)[C@@H](O)[C@H](N)[C@H]1O [amikacin],resistance of the strain to commercial antibiotics,[28],resistant
CC1(C)S[C@@H]2[C@H](NC(=O)[C@H](N)c3ccccc3)C(=O)N2[C@H]1C(=O)O [ampicillin],resistance of the strain to commercial antibiotics,[28],resistant
CC(=O)OCC1=C(C(=O)O)N2C(=O)[C@@H](NC(=O)Cc3cccs3)[C@H]2SC1 [cefalotin],resistance of the strain to commercial antibiotics,[28],resistant
CO/N=C(\C(=O)N[C@@H]1C(=O)N2C(C(=O)[O-])=C(C[N+]3(C)CCCC3)CS[C@H]12)c1csc(N)n1 [cefepime],resistance of the strain to commercial antibiotics,[28],resistant
CO/N=C(\C(=O)N[C@@H]1C(=O)N2C(C(=O)O)=C(COC(C)=O)CS[C@H]12)c1csc(N)n1 [cefotaxim],resistance of the strain to commercial antibiotics,[28],resistant
CO[C@@]1(NC(=O)Cc2cccs2)C(=O)N2C(C(=O)O)=C(COC(N)=O)CS[C@@H]21 [cefoxitin],resistance of the strain to commercial antibiotics,[28],resistant
O=C(O)c1cn(C2CC2)c2cc(N3CCNCC3)c(F)cc2c1=O [ciprofloxacin],resistance of the strain to commercial antibiotics,[28],resistant
CCn1cc(C(=O)O)c(=O)c2ccc(C)nc21 [nalidixic acid],resistance of the strain to commercial antibiotics,[28],resistant
colistin,resistance of the strain to commercial antibiotics,[28],resistant
gentamicin,resistance of the strain to commercial antibiotics,[28],resistant
